Tested on: male CD1 mice
Experiment: Delivery of Firefly Luciferase (FFL) mRNA by intratracheal administration of lipid nanoparticles
Type: in vivo
Settings: lipid nanoparticles (Process A) with FFL mRNA, cationic lipid, DMG-PEG2000, cholesterol and DOPE (40:5:25:30 or 45:5:20:30 mol %); single intratracheal aerosol administration; IVIS imaging approximately 24 hours post-dose; FIG. 1
Procedure: One exemplary process for lipid nanoparticle formulation is Process A of WO 2018/089801 (see, e.g., Example 1 and FIG. 1 of WO 2018/089801). Process A (“A”) relates to a conventional method of encapsulating mRNA by mixing mRNA with a mixture of lipids, without first pre-forming the lipids into lipid nanoparticles. In an exemplary process, an ethanol lipid solution and an aqueous buffered solution of mRNA were prepared separately. A solution of mixture of lipids (cationic lipid, helper lipids, zwitterionic lipids, PEG lipids etc.) was prepared by dissolving lipids in ethanol. The mRNA solution was prepared by dissolving the mRNA in citrate buffer. Then, these two solutions were mixed using a pump system. In some instances, the two solutions were mixed using a gear pump system. In certain embodiments, the two solutions were mixing using a ‘T’ junction (or “Y” junction). The mixture was then purified by diafiltration with a TFF process. The resultant formulation concentrated and stored at 2-8° C. until further use.
Lipid nanoparticle formulations prepared using Process A comprising FFL mRNA, cationic lipid, DMG-PEG2000, cholesterol and DOPE (40:5:25:30 or 45:5:20:30 mol % ratio) were administered to male CD1 mice (6-8 weeks old) by a single intratracheal aerosol administration via a Microsprayer® (50 ul/animal) while under anesthesia. At approximately 24 hours post-dose, the animals were dosed with luciferin at 150 mg/kg (60 mg/ml) by intraperitoneal injection at 2.5 ml/kg. After 5-15 minutes, all animals were imaged using an IVIS imaging system to measure luciferase production in the lung.

Structure (SMILES)	in vivo protein production (FFL protein; luciferase production in the lung)
CCCCCCCCCCCCC(O)CN(CCCC(=O)OCCN1CC(C)N(CCOC(=O)CCCN(CC(O)CCCCCCCCCCCC)CC(O)CCCCCCCCCCCC)CC1C)CC(O)CCCCCCCCCCCC (stereo not shown) [Compound A11]	high levels of in vivo protein production
CCCCCCCCOC(=O)CCN(CCCCC(=O)OCCN1CC(C)N(CCOC(=O)CCCCN(CCC(=O)OCCCCCCCC)CCC(=O)OCCCCCCCC)CC1C)CCC(=O)OCCCCCCCC (stereo not shown) [Compound D21]	high levels of in vivo protein production
CCCCCCCCC(O)CN(CCCC(=O)OCCN1CC(C)N(CCOC(=O)CCCN(CC(O)CCCCCCCC)CC(O)CCCCCCCC)CC1C)CC(O)CCCCCCCC (stereo not shown) [Compound A9]	high levels of in vivo protein production
CCCCCCCCCCCCC(O)CN(CCCCC(=O)OCCN1CC(C)N(CCOC(=O)CCCCN(CC(O)CCCCCCCCCCCC)CC(O)CCCCCCCCCCCC)CC1C)CC(O)CCCCCCCCCCCC (stereo not shown) [Compound A19]	high levels of in vivo protein production
CCCCCCCCC(O)CN(CCCCC(=O)SCCN1CC(C)N(CCSC(=O)CCCCN(CC(O)CCCCCCCC)CC(O)CCCCCCCC)CC1C)CC(O)CCCCCCCC (stereo not shown) [Compound C17]	high levels of in vivo protein production
CCCCCCCCC(O)CN(CCCCC(=O)OCCN1CC(C)N(CCOC(=O)CCCCN(CC(O)CCCCCCCC)CC(O)CCCCCCCC)CC1C)CC(O)CCCCCCCC (stereo not shown) [Compound A17]	high levels of in vivo protein production
CCCCCCCCCCC(O)CN(CCCCC(=O)OCCN1CC(C)N(CCOC(=O)CCCCN(CC(O)CCCCCCCCCC)CC(O)CCCCCCCCCC)CC1C)CC(O)CCCCCCCCCC (stereo not shown) [Compound A18]	high levels of in vivo protein production
CCCCC/C=C\C/C=C\CCCCCCC(O)CN(CCCC(=O)OCCN1CC(C)N(CCOC(=O)CCCN(CC(O)CCCCCC/C=C\C/C=C\CCCCC)CC(O)CCCCCC/C=C\C/C=C\CCCCC)CC1C)CC(O)CCCCCC/C=C\C/C=C\CCCCC (stereo not shown) [Compound A15]	high levels of in vivo protein production
CCCCCCCCC(O)CN(CCCC(=O)SCCN1CC(C)N(CCSC(=O)CCCN(CC(O)CCCCCCCC)CC(O)CCCCCCCC)CC1C)CC(O)CCCCCCCC (stereo not shown) [Compound C9]	high levels of in vivo protein production
CC(C)CCCCCCCOC(=O)CCN(CCCCC(=O)OCCN1CC(C)N(CCOC(=O)CCCCN(CCC(=O)OCCCCCCCC(C)C)CCC(=O)OCCCCCCCC(C)C)CC1C)CCC(=O)OCCCCCCCC(C)C (stereo not shown) [Compound D23]	high levels of in vivo protein production
